Results on 1 compound are retold here after patent publication US10751337B2, “Preservative free ocular compositions and methods for using the same for treating dry eye disease and other eye disorders” (The Board of Trustees of the University of Illinois, priority 2015, dated 2020).

Molecules are shown by their SMILES.

Series [1] has as its system Sjogren dry eye syndrome. Particulars: person; 0.15% twice a day in both eyes.
Series [2] relates to Evaporative dry eye (EDE) attributable to LASIK refractive surgery. Particulars: person after LASIK; eye drops 0.15% in both eyes; most recent follow up. The text has this:
The patient treated was a person with severe symptoms of ocular discomfort. The patient had undergone LASIK refractive surgery in both eyes. The prior treatment history was that the patient was on doxycycline pills, warm compresses, erythromycin ointment and intermittently on steroid eye drops. […] The patient instilled the eye drops on the surface of the eye and spread the excess eye drops to both eye lid margins.

The test system of series [3] is mixed dry eye disease (severe tear deficiency Meibomian gland dysfunction (MGD)). Particulars: one patient.
Series [4] deals with Non-Sjogren dry eye syndrome (Meibomian gland dysfunction). In words: Treatment of a patient with non-Sjogren dry eye syndrome, MGD not due to ocular GVHD (Example 4). The settings on record: person, 0.15% twice a day.
Series [5] concerns Meibomian gland dysfunction (MGD) in patients with chronic ocular Graft-Versus-Host-Disease (oGVHD). In words: Treatment of chronic ocular GVHD patients with Meibomian gland dysfunction, SGA and CGI assessment (Example 2).
The mark [6] stands for this setting: ocular GVHD patients with MGD, summary statement.

As for `Brc1c(NC2=NCCN2)ccc2nccnc12` [brimonidine, 5-Bromo-N-(4,5-dihydro-1H-imidazol-2-yl) quinoxalin-6-amine], the “patient-reported symptoms and redness” value in series [1] is “improvement in symptoms and redness”. Moreover, in series [2], the “patient-reported improvement of symptoms since starting treatment” value was 90%. For the same compound, in series [3] (0.15% aqueous solution twice a day to eyelash and eyelid margin area, 15 minutes after application), the “conjunctival and eyelid margin redness” value was “significant reduction”. Moreover, the “patient-reported symptoms of ocular discomfort” value in series [3] (0.15% aqueous solution twice a day, after applying) is “reduced”. Also, in series [4], the side effects result is on record as “No side effects were reported” and the “tolerability of the drops” value is “tolerated well”. Besides, in series [4] (most recent follow up), the “patient-reported redness of both eyes” value is “reduction in redness of both eyes”; the “patient-reported symptoms of dryness and burning” value was “reduction in symptoms of dryness and burning”. In addition, the “patients who did not report any change (SGA)” value in series [5] (18 patients (n=2), 0.15% twice a day) came to 11%. Moreover, in series [5] (18 patients (n=6), 0.15% twice a day), the “patients who reported improvement (SGA)” value was found to be 33%. Besides, the “patients who reported much improvement (SGA)” value in series [5] (18 patients (n=10), 0.15% twice a day) was determined as 55%. Besides, the “patients with moderate to marked improvements in CGI” value in series [5] (18 patients (n=15), 0.15% twice a day) was 83%. Besides, in series [5] (18 patients, 0.15% twice a day), the “patients clinically worsened (CGI)” value is “No patients had clinically worsened”, the “patients reporting worsening of symptoms or signs (SGA)” value was “No patients reported worsening of symptoms or signs” and the “tolerability of the eye drops” value is listed as “easily tolerated”. Moreover, the “Subjective Global Assessment (SGA), mean (±SD)” value in series [5] (18 patients, five point scale (Much worse to Much improved), 0.15% one drop twice a day, followed 6 months or more) came out at 4.4±0.69. Besides, in series [5] (18 patients, seven point scale (Marked worsening to Marked improvement), 0.15% twice a day), the “Clinical Global Impression (CGI), mean (±SD)” value stood at 6.2±0.88. Moreover, in series [5] (setting [6]), the “patients tested with a beneficial effect” value is given as “approximately 90%” and the side effects entry was “without significant side effects”.
